# Test results: patent US9434697B2, “Pyrimidine FGFR4 inhibitors” (priority 2013, dated 2016)
# Read-outs that look alike come from different tables or passages of the source.
# Columns and labels:
# [1] = tested on: HEP3B tumor xenografts; format: in vivo
# [2] = target: Recombinant FGFR4 (Homo sapiens (Human), UniProt P22455); assay: Kinase HotSpot assay, IC50 profiling of kinase activity inhibition (FGFR4); format: biochemical; details: Table 1; 10 μM ATP
# [3] = target: Recombinant FGFR1 (Homo sapiens (Human), UniProt P11362); assay: Kinase HotSpot assay, IC50 profiling of kinase activity inhibition (FGFR1); format: biochemical; details: Table 1; 10 μM ATP
# Recombinant FGFR1, sequence (P11362 22-822): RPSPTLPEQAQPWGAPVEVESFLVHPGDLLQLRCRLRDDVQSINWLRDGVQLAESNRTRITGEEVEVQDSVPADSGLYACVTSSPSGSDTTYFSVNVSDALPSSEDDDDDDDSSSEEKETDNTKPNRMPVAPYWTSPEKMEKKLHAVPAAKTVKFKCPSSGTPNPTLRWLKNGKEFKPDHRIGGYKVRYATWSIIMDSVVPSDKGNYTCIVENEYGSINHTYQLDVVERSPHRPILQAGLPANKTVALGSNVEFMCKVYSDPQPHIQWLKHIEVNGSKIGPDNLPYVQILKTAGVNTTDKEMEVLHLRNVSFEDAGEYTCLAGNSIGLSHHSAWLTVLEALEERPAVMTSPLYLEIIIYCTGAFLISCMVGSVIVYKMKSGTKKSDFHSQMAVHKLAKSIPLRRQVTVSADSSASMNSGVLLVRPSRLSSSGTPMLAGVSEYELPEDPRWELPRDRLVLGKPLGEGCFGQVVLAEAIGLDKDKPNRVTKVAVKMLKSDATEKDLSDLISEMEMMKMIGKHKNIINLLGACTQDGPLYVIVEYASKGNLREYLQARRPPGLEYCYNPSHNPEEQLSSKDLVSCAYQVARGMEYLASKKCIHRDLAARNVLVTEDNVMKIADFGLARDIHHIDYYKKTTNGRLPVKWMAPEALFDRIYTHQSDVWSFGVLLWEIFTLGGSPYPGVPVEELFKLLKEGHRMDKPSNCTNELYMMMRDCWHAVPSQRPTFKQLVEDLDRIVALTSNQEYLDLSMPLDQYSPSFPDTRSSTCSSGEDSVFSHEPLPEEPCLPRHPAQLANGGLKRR
# Recombinant FGFR4, sequence (P22455 22-802): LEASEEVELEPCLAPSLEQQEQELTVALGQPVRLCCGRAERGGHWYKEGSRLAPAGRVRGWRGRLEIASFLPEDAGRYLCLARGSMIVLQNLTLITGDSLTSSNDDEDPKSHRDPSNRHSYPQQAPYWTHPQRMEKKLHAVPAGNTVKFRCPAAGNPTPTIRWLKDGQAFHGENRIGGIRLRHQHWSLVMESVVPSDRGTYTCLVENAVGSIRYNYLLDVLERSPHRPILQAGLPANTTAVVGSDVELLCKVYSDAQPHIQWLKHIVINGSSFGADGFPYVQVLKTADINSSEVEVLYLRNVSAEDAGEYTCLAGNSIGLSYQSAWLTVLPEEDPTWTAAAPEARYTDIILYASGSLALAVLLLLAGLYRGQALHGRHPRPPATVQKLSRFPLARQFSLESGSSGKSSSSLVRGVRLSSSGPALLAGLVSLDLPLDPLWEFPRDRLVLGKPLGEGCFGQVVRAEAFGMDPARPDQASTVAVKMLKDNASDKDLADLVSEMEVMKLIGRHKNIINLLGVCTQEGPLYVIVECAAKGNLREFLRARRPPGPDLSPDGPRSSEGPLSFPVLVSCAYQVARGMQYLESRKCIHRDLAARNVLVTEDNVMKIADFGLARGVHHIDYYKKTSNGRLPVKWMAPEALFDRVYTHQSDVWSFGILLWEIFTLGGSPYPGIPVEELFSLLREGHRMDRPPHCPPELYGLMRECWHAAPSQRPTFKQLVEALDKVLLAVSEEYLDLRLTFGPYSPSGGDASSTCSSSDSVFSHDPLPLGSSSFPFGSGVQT
smiles,measurement,setting,value
CCN1CCN(c2ccc(Nc3cc(N(C)C(=O)Nc4c(Cl)c(OC)cc(OC)c4Cl)ncn3)cc2)CC1 [BGJ398],tolerability (health of animals),[1]; 30 mg/kg orally twice daily,did not exhibit poor health
same,comparative in vivo efficacy (tumor volume),[1]; 60 mg/kg orally twice daily,efficacy comparable to compound 108
same,tolerability (health of animals),[1]; 60 mg/kg orally twice daily,terminated on Day 11 due to poor health of animals
C=CC(=O)Nc1ccccc1Nc1cc(N(C)C(=O)Nc2cc(OC)cc(OC)c2)ncn1 [Example 102],IC50,[2],0.853 µM
same,IC50,[3],> 10 µM
"C=CC(=O)Nc1cc(N2CCN(CC)CC2)ccc1Nc1cc(N(C)C(=O)Nc2c(Cl)c(OC)cc(OC)c2Cl)ncn1 [Example 108, N-(2-(6-(3-(2,6-Dichloro-3,5-dimethoxyphenyl)-1-methylureido)pyrimidin-4-ylamino)-5-(4-ethylpiperazin-1-yl)phenyl)acrylamide]",comparative in vivo efficacy (tumor volume),"[1]; 25, 37.5 or 50 mg/kg i.p. twice daily, 18 days",more efficacious than BGJ398 at tolerable dosage levels
